Results: patent US20110045101A1, “FUNGICIDAL SUBSTITUTED AZOLES” (E.I. Du Pont De Nemours and Company, priority 2009, published 2011)
Marks after values point to notes of the source that are not given here.

Key:
Type in all cases: in vivo
Conditions in all cases: 100 = 100% disease control
Alternaria solani = assay: Test D: tomato early blight, sprayed the day before inoculation, visual disease rating
Procedure, shortened: (§1)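 Acetone solution (3% of final volume) of each compound is suspended in 50/50 acetone/water with 250 ppm Trem® 014. Plants are sprayed to run-off at 200 ppm, equivalent to 500 g/ha, or at 40 ppm for starred values.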

Botrytis cinerea = assay: Test C: tomato Botrytis on tomato seedlings, sprayed the day before inoculation, visual disease rating
Procedure, shortened: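 Disease ratings refer to tomato seedlings treated by run-off spraying with compound suspensions, mostly 200 ppm (500 g/ha equivalent) and in marked cases 40 ppm. Carrier: acetone/purified water 50/50 with 250 ppm polyhydric alcohol ester surfactant, after predissolving in acetone.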

[1] = tested on: Erysiphe graminis f. sp. tritici; assay: Test J: wheat powdery mildew on wheat seedlings, sprayed the day before inoculation, visual disease rating
Procedure, shortened: as §1

[2] = tested on: Puccinia recondita f. sp. tritici; assay: Test H: wheat leaf rust, test suspension sprayed after inoculation of wheat seedlings, visual disease rating
Procedure, shortened: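 Wheat seedlings inoculated with P. recondita spores, held 24 h saturated at 20 °C, then 2 days in growth chamber at 20 °C; compound suspension (acetone/water with Trem 014) sprayed to run-off afterwards. Rated visually; 200 ppm (≈500 g/ha) unless marked *, which denotes 40 ppm.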

Septoria tritici = assay: Test G: wheat leaf blotch on wheat seedlings, sprayed the day before inoculation, visual disease rating
Procedure, shortened: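 Wheat seedlings were sprayed with compound suspensions, 200 ppm unless starred (40 ppm). After next-day spore inoculation, plants spent 48 h saturated at 24° C, then 19 days at 20° C, when disease was rated visually.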

[3] = tested on: Puccinia recondita f. sp. tritici; assay: Test I: wheat leaf rust on wheat seedlings, sprayed the day before inoculation, visual disease rating
Procedure, shortened: as §1

Septoria nodorum = assay: Test F: wheat glume blotch on wheat seedlings, sprayed the day before inoculation, visual disease rating
Procedure, shortened: as §1

[4] = 200 ppm, 0 = no control relative to controls

Structure (SMILES)	Test D disease control rating (Alternaria solani; [4])	Test C disease control rating (Botrytis cinerea; [4])	Test J disease control rating [1, 4]	Test H disease control rating [2, 4]	Test G disease control rating (Septoria tritici; [4])	Test I disease control rating [3, 4]	Test F disease control rating (Septoria nodorum; [4])	Test G disease control rating (Septoria tritici; 40 ppm (marked *), 0 = no control)	Test D disease control rating (Alternaria solani; 40 ppm (marked *))	Test C disease control rating (Botrytis cinerea; 40 ppm (marked *))	Test J disease control rating ([1]; 40 ppm (marked *))	Test H disease control rating ([2]; 40 ppm (marked *))	Test G disease control rating (Septoria tritici; 40 ppm (marked *))	Test I disease control rating ([3]; 40 ppm (marked *))	Test F disease control rating (Septoria nodorum; 40 ppm (marked *))
COc1cc(F)c(-c2c(-c3ccc(I)cc3)c(OC)nn2C)c(F)c1 [compound 431]	9%	9%	0%	9%	98%	0%	0%								
COc1nn(C)c(-c2ccc(F)cc2Cl)c1-c1ccc(I)cc1 [compound 432]	0%	33%	0%	0%	25%	0%	0%								
Fc1cc(-n2c(Cl)nc(Cl)c2-c2cccc(Br)n2)ccc1Cl [compound 433]	0%	50%	0%	0%	92%	0%	0%								
COc1ccc(-c2c(Cl)nc(Cl)n2-c2ccc(Cl)c(F)c2)cn1 [compound 434]	9%	96%	76%	0%	99%	68%	0%								
COc1cncc(F)c1-c1c(Cl)nc(Cl)n1-c1ccc(Cl)c(F)c1 [compound 435]	24%	99%	0%	0%	99%	68%	0%								
Fc1cc(-n2c(Cl)nc(Cl)c2-c2cnc3ccccc3c2)ccc1Cl [compound 436]	98%	87%	0%	0%	81%	0%	0%								
COc1cc(Cl)c(-c2c(Cl)nc(Cl)n2-c2ccc(Cl)c(F)c2)c(Cl)c1 [compound 437]	80%	99%	98%	0%	100%	98%	60%								
COc1cc(Cl)cc(Cl)c1-c1c(Cl)nc(Cl)n1-c1ccc(Cl)c(F)c1 [compound 438]	0%	0%	0%	0%		0%	0%	86* %							
Fc1cc(-n2c(Br)nc(Br)c2-c2c(F)ccc(F)c2Cl)ccc1Cl [compound 459]									63* %	99* %	98* %	9* %	95* %	98* %	0* %
Cc1ccc(-n2c(Br)nc(Br)c2-c2c(F)ccc(F)c2Cl)cc1 [compound 460]									85* %	99* %	96* %	0* %	97* %	93* %	0* %
Cc1ccc(-n2c(Br)nc(Br)c2-c2c(F)ccc(F)c2F)cc1 [compound 461]									99* %	99* %	98* %	0* %	94* %	97* %	0* %
Fc1ccc(-n2c(Br)nc(Br)c2-c2c(F)cc(F)cc2F)cc1 [compound 462]									100* %	100* %	99* %	0* %	96* %	78* %	0* %
Fc1cc(-n2c(Cl)nc(Br)c2-c2c(F)ccc(F)c2Cl)ccc1Cl [compound 463]									99* %	99* %	99* %	0* %	95* %	100* %	0* %
Cc1ccc(-n2c(Cl)nc(Br)c2-c2c(F)ccc(F)c2Cl)cc1 [compound 464]									89* %	99* %	100* %	0* %	72* %	99* %	0* %
Cc1ccc(-n2c(Cl)nc(Br)c2-c2c(F)ccc(F)c2F)cc1 [compound 465]									99* %	100* %	99* %	0* %	88* %	99* %	0* %
Cc1nc(Cl)n(-c2c(F)cccc2F)c1-c1ccc(Cl)cc1 [compound 466]									100* %	99* %	100* %	0* %	82* %	93* %	0* %
COCc1nc(Cl)n(-c2c(F)cccc2F)c1-c1ccc(Cl)cc1 [compound 467]									0* %	94* %	96* %	0* %	32* %	71* %	0* %
Cc1nc(Cl)c(-c2c(F)cccc2F)n1-c1ccc2ncccc2c1 [compound 468]									99* %	99* %	58* %	0* %	96* %	91* %	0* %
Fc1cccc(F)c1-c1c(Cl)nc(CCl)n1-c1ccc2c(c1)OCCO2 [compound 469]									0* %	65* %	0* %	0* %	79* %	81* %	0* %
Cc1nc(Cl)c(-c2c(F)cccc2F)n1-c1ccc2c(c1)OCCO2 [compound 470]									99* %	99* %	87* %	0* %	92* %	99* %	0* %
COc1ccc(F)c(-c2c(Br)nc(Br)n2-c2ccc(Cl)cc2)c1F [compound 471]	100%	100%	100%	0%	97%	98%	100%								
COc1ccc(F)c(-c2c(Br)nc(Cl)n2-c2ccc(F)cc2)c1F [compound 472]	100%	100%	100%	80%	96%	100%	100%								
COc1ccc(F)c(-c2c(Br)ncn2-c2ccc(C)cc2)c1F [compound 473]	100%	99%	100%	0%	97%	100%	0%								
COc1cc(F)c(-n2nnc(Br)c2-c2ccc(Cl)cc2)c(F)c1 [compound 474]	57%	99%	95%	0%	90%	36%	0%								
COc1cc(OC)cc(-n2c(Cc3ccc(F)cc3F)cnc2C)c1 [compound 476]	0%	0%	47%	0%	59%	78%	0%								
